Data on 27 molecules can be found in EP2698385A1, “Detection of synthetic cannabinoids” (priority 2012, dated 2014).

Structures can show the parent of a compound that is named as a salt. Where two headings read alike, the source gives them in different places.

Common to all, as to format: binding, sheep
Test [1] deals with Antibody to Immunogen I. Conditions: Cross-reactants at 100 ng/ml; Antibody to Immunogen I. As to the method:
(§1) An aqueous solution of each immunogen was formulated with Freund's Complete Adjuvant (FCA) to form an emulsion consisting of 2mg/ml* immunogen in 50% (v/v) FCA. Three sheep were immunised with this emulsion (1° immunisation), 0.25ml being intramuscularly injected at each of four sites in the flank of each animal. Subsequent immunizations (boosts) contained 1mg/ml* immunogen. All boosts were emulsified in 50% (v/v) Freund's Incomplete Adjuvant (FIA) and were administered in the same manner as the 1° immunisation, at monthly intervals. Blood sampling took place 7 to 14 days after each boost. *The general procedure for immunogen administration is outlined above, however, it was necessary to deviate from this protocol in some cases, due to reduced immunogen concentrations (Immunogens II, IV, VII and VIII) and/or amount available (Immunogen VIII). Any deviations from the protocol described are outlined in Table 1A below and highlighted in bold. Table 1A: Amount and volume of immunogens administered for primary and subsequent boosts
(§2) The wells of an enhanced binding 96 well polystyrene microtiter plate were coated with IgG fraction of antiserum raised to Immunogen I or II, diluted in 10mM Tris, pH8.5 (125µl/well). The appropriate antibody coating dilution was determined using standard ELISA checkerboard techniques. The plate was incubated overnight at 4°C, washed 4 times over 10 minutes with Tris buffered saline containing Tween 20 (TBST) and tapped dry. Standard solutions (JWH-018 for Immunogens I and II) were applied at 0, 0.625, 1.25, 2.5, 5, 10, 20 and 40ng/ml and 50µl of each was added to the appropriate wells. 75µl of conjugate (appropriate hapten-HRP) diluted in Tris buffer (pH 7.2) containing EDTA, D-mannitol, sucrose, thimerosal and BSA, was added to each of the wells. The appropriate dilution of conjugate was also determined using standard ELISA checkerboard techniques. The plate was incubated at 25°C for 1 hour. Excess unbound conjugate was removed by washing 6 times over a 10 minute period with TBST. 125µl of tetramethylbenzidine (TMB) substrate solution was added to each well of the plate that was then incubated for 20 minutes in the dark at room temperature. The reaction was terminated by addition of 125µl 0.2M H2SO4 to each well. The absorbance was then measured at 450nm using a microtiter plate reader. The data are inputted to a computer program called 'KC Junior'. It is a 4 parameter fit curve and allow the calculatation of concentrations between the standard runs. This program is used to calculate the IC50s by dividing the 0ng/ml OD value by 2 and obtaining the concentration value from the curve for this OD.
In a similar manner to that described above, the wells of a 96-well microtiter plate were coated with the IgG fraction of the antiserum raised to Immunogens I or II. Standard solutions (JWH-018 for Immunogen I and II) were applied at 0, 0.625, 1.25, 2.5, 5, 10, 20 and 40ng/ml and conjugate was employed as detection reagent.
(§3) The data set our in Tables 3 and 4 are generated using antibodies raised against the indicated Immunogens in a competitive binding assay with the indicated tracers, using the indicated standards: Table 2
(§4) A450 = absorbance at 450nm B = absorbance at 450nm at xng/ml standard concentration B0 = absorbance at 450nm at 0ng/ml standard concentration IC50 = standard concentration which produces 50% B/B0
(§5) In order to determine the specificity of the competitive ELISAs, standard solutions of a range of structurally similar synthetic cannabinoids and their metabolites were prepared in TBST. Using the calibration curves generated and employing a single level of cross reactants, these were used to determine the cross-reactivity of each immunoassay with these substances. […]

Test [2] concerns Antibody to Immunogen IV. As to the method: as §1, §2
(§6) In a similar manner to that described above, the wells of a 96-well microtiter plate were coated with the IgG fraction of the antiserum raised to Immunogens IV, VII or VIII. Standard solutions (JWH-018 for Immunogens IV and VIII, JWH-015 for Immunogen VII) were prepared in TBST at 0, 1.25, 2.5, 5, 10, 20, 40 and 80ng/ml and conjugate was employed as detection reagent.
as §3, §4, §5

Test [3] has as its system Antibody to Immunogen VIII. The protocol: as §1, §2, §6, §3, §4, §5
Test [4] relates to Antibody to Immunogen VII. The protocol:
as §1, §2, §6, §3, §4, §5

Where [5] appears, read: Cross-reactants at 100 ng/ml, Antibody to Immunogen IV.
Setting [6] is: Cross-reactants at 100 ng/ml, Antibody to Immunogen VIII.
[7] abbreviates: Cross-reactants at 100 ng/ml, Antibody to Immunogen VII.

As for `CCCCCn1c(O)c(C(=O)c2cccc3ccccc23)c2ccccc21` [JWH-018 2-hydroxyindole metabolite], the “%B/B0” value was determined as 95.37% in test [1], 100.14% in test [2] (setting [5]), 101.36% in test [3] (setting [6]) and 95.08% in test [4] (setting [7]).

Take `O=C(c1ccc(I)cc1)c1cn(CCCCCF)c2ccccc12` [AM-694 4-iodo isomer]: the “%B/B0” value was 73.79% in test [1], 27.66% in test [2] (setting [5]), 13.42% in test [3] (setting [6]) and 98.71% in test [4] (setting [7]).

(-)-11-nor-9-Carboxy-delta9-THC: the “%B/B0” value in test [2] is 93.08%; in test [3] it was 103.36%; in test [4] it was 98.72%.

`CCCCCn1cc(C(=O)Cc2ccc(Cl)cc2)c2ccccc21` [JWH-206 (JWH-203 4-chloro isomer), JWH-203 4-chloro isomer]: the “%B/B0” value stood at 75.96% in test [1], 65.63% in test [2] (setting [5]), 10.55% in test [3] (setting [6]) and 97.17% in test [4] (setting [7]).

Turning to `O=C(c1ccc2ccccc2c1)c1cn(CCN2CCOCC2)c2ccccc12` [JWH-200 2'-naphthyl isomer], the “%B/B0” value came to 28.57% in test [1], 92.29% in test [2] (setting [5]), 96.12% in test [3] (setting [6]) and 94.65% in test [4] (setting [7]).

Turning to `CCCCCn1cc(C(=O)Cc2ccccc2OC)c2cc(O)ccc21` [JWH 250 5-hydroxyindole metabolite], the “%B/B0” value in test [1] came out at 100.75%; in test [2] (setting [5]) it was 84.05%; in test [3] (setting [6]), 67.19%; in test [4] (setting [7]) it was 99.88%.

As to `CCCCCn1c(C)c(C(=O)c2ccc(OC)c3ccccc23)c2ccccc21` [JWH-098], the “%B/B0” value in test [1] is reported as 77.58%; in test [2] (setting [5]) it was 44.03%; in test [3] (setting [6]), 59.80%; in test [4] (setting [7]) it was 82.85%.

On to (-)-CP 55,940, for which the “%B/B0” value turned out to be 98.27% in test [1], 93.02% in test [2] (setting [5]), 97.58% in test [3] (setting [6]) and 101.15% in test [4] (setting [7]).

Regarding `COc1ccc(C(=O)c2cn(CCCC(C)O)c3ccccc23)cc1` (stereo not shown) [RCS-4 N-(4-hydroxypentyl) metabolite], the “%B/B0” value in test [1] is on record as 65.71%; in test [2] (setting [5]), 59.16%; in test [3] (setting [6]), 8.89%; in test [4] (setting [7]), 95.72%.

In the case of `CCCCCCC(C)(C)C1=CC(=O)C([C@@H]2CCC[C@H](O)C2)=CC1=O` [CP-47,497-para-quinone analogue], the “%B/B0” value in test [1] is 100.26%; in test [2] (setting [5]), 97.33%; in test [3] (setting [6]), 88.11%; in test [4] (setting [7]) it was 93.29%.

Turning to `CCCCCn1cc(C(=O)c2ccc(OC)cc2)c2ccccc21` [RCS-4], the “%B/B0” value in test [1] is 80.46%; in test [2] (setting [5]), 19.21%; in test [3] (setting [6]), 5.93%; in test [4] (setting [7]), 93.51%.

Take `CCCCCn1cc(C(=O)C23CC4CC(CC(C4)C2)C3)c2ccccc21` [JWH 018 adamantyl analog]: the “%B/B0” value was determined as 95.94% in test [1], 99.02% in test [2] (setting [5]), 10.97% in test [3] (setting [6]) and 94.48% in test [4] (setting [7]).

In the case of `CCCCCn1cc(C(=O)c2c(CC)ccc3ccccc23)c2ccccc21` [JWH-210 2-ethylnaphthyl isomer], the “%B/B0” value worked out at 81.37% in test [1], 53.97% in test [2] (setting [5]), 73.51% in test [3] (setting [6]) and 96.13% in test [4] (setting [7]).

Turning to (+)-CP 55,940, the “%B/B0” value in test [1] is 103.25%; in test [2] (setting [5]), 91.38%; in test [3] (setting [6]), 95.12%; in test [4] (setting [7]), 97.15%.

Take `CCCCCn1cc(C(=O)Cc2ccc(OC)cc2)c2ccccc21` [JWH-201]: the “%B/B0” value is 77.14% in test [1], 59.03% in test [2] (setting [5]), 8.26% in test [3] (setting [6]) and 100.25% in test [4] (setting [7]).

Turning to `CCCCCn1cc(C(=O)c2ccc(CCC)c3ccccc23)c2ccccc21` [JWH-182], the “%B/B0” value in test [1] is reported as 107.08%; in test [2] (setting [5]), 12.83%; in test [3] (setting [6]), 30.65%; in test [4] (setting [7]), 98.40%.

Regarding `CCc1ccc(C(=O)c2cn(CCCCCC(=O)O)c3ccccc23)c2ccccc12` [JWH-210 N-(5-carboxypentyl) metabolite], the “%B/B0” value in test [1] is 76.77%; in test [2] (setting [5]), 85.29%; in test [3] (setting [6]), 96.27%; in test [4] (setting [7]) it was 96.07%.

Regarding `CCCC(C)(C)c1ccc2c(c1)OC(C)(C)[C@@H]1CC=C(C)C[C@@H]21` [JWH-133], the “%B/B0” value in test [1] turned out to be 100.56%; in test [2] (setting [5]) it was 98.18%; in test [3] (setting [6]) it was 100.00%; in test [4] (setting [7]), 101.84%.

In the case of `CCCCCCC(C)(C)c1cc(O)c2c(c1)OC(C)(C)[C@@H]1CC=C(CO)C[C@@H]21` [HU-210], the “%B/B0” value in test [1] is given as 102.57%; in test [2] (setting [5]), 92.53%; in test [3] (setting [6]), 93.42%; in test [4] (setting [7]), 100.39%.

`CN1CCCCC1Cn1cc(C(=O)c2cc([N+](=O)[O-])ccc2I)c2ccccc21` (stereo not shown) [AM-1241]: the “%B/B0” value worked out at 85.61% in test [1], 91.38% in test [2] (setting [5]), 102.46% in test [3] (setting [6]) and 94.96% in test [4] (setting [7]).

As for `CCCCCn1cc(C(=O)c2ccc(OC)c3ccccc23)c2ccccc21` [JWH-081], the “%B/B0” value was determined as 62.13% in test [1], 3.78% in test [2] (setting [5]), 15.88% in test [3] (setting [6]) and 86.72% in test [4] (setting [7]).

Regarding `COc1ccc(C(=O)c2cn(CCCCCO)c3ccccc23)c2ccccc12` [JWH-081 N-(5-hydroxypentyl) metabolite], the “%B/B0” value in test [1] was 61.86%; in test [2] (setting [5]) it was 26.31%; in test [3] (setting [6]), 47.16%; in test [4] (setting [7]) it was 89.31%.

Consider `CCCCCn1cc(C(=O)Cc2cccc(OC)c2)c2ccccc21` [JWH-302], for which the “%B/B0” value in test [1] was determined as 84.66%; in test [2] (setting [5]) it was 45.67%; in test [3] (setting [6]), 7.97%; in test [4] (setting [7]) it was 104.92%.

In the case of `CCCCCC(C)n1c(C)c(C(=O)c2cccc3ccccc23)c2ccccc21` (stereo not shown) [JWH-011], the “%B/B0” value in test [1] is given as 62.13%; in test [2] (setting [5]), 99.19%; in test [3] (setting [6]), 97.49%; in test [4] (setting [7]), 57.43%.

Turning to `CCCCCCn1cc(C(=O)c2cccc3ccccc23)cc1-c1ccccc1` [JWH-147], the “%B/B0” value in test [1] is 83.85%; in test [2] (setting [5]), 97.00%; in test [3] (setting [6]), 92.32%; in test [4] (setting [7]), 99.32%.

With “JWH-081 2-methoxynaphthyl isomer [JWH-081 2-methoxynaphthyl isomer or (JWH-267)]”, the “%B/B0” value in test [1] is given as 69.58%; in test [2] (setting [5]), 27.67%; in test [3] (setting [6]) it was 58.20%; in test [4] (setting [7]), 83.43%.

With `NCCc1c[nH]c2ccc(O)cc12` [Serotonin HCl], the “%B/B0” value in test [2] (setting [5]) turned out to be 95.40%; in test [3] (setting [6]), 100.36%; in test [4] (setting [7]), 99.83%.
